Test results published in the supplement of paper PMC10657565.
± gives the uncertainty stated by the source.

Experiments:
Experiment in all cases: relative cell viability vs DMSO control (% of DMSO control); higher = less growth inhibition (higher viability)
Details in all cases: treatment time: 72 h
SUM159 = test system: SUM159
Method: (§1)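 Breast cancer cell lines (BT-474, HCC1806, SUM-159, SKBR-3) were seeded in triplicate in 96-well plates and treated 24 h after seeding with kinase inhibitors at 8 doses (3 nM to 30 uM). After 72 h, viability was read by CellTiter-Glo luminescence. Values were averaged over replicates and normalised to DMSO-only (0.1%) controls on each plate to give relative viability (% of DMSO).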

SKBR3 = test system: SKBR3
Method: as §1

HCC1806 = test system: HCC1806
Method: as §1

BT-474 = test system: BT-474
Method: as §1

| SMILES | relative cell viability (SUM159; 0.003 µM) | relative cell viability (SUM159; 0.01 µM) | relative cell viability (SUM159; 0.03 µM) | relative cell viability (SUM159; 0.1 µM) | relative cell viability (SUM159; 0.3 µM) | relative cell viability (SUM159; 1 µM) | relative cell viability (SUM159; 3 µM) | relative cell viability (SUM159; 30 µM) | relative cell viability (SKBR3; 0.003 µM) | relative cell viability (SKBR3; 0.01 µM) | relative cell viability (SKBR3; 0.03 µM) | relative cell viability (SKBR3; 0.1 µM) | relative cell viability (SKBR3; 0.3 µM) | relative cell viability (SKBR3; 1 µM) | relative cell viability (SKBR3; 3 µM) | relative cell viability (SKBR3; 30 µM) | relative cell viability (HCC1806; 0.003 µM) | relative cell viability (HCC1806; 0.01 µM) | relative cell viability (HCC1806; 0.03 µM) | relative cell viability (HCC1806; 0.1 µM) | relative cell viability (HCC1806; 0.3 µM) | relative cell viability (HCC1806; 1 µM) | relative cell viability (HCC1806; 3 µM) | relative cell viability (HCC1806; 30 µM) | relative cell viability (BT-474; 0.003 µM) | relative cell viability (BT-474; 0.01 µM) | relative cell viability (BT-474; 0.03 µM) | relative cell viability (BT-474; 0.1 µM) | relative cell viability (BT-474; 0.3 µM) | relative cell viability (BT-474; 1 µM) | relative cell viability (BT-474; 3 µM) | relative cell viability (BT-474; 30 µM) |
| --- | --- | --- | --- | --- | --- | --- | --- | --- | --- | --- | --- | --- | --- | --- | --- | --- | --- | --- | --- | --- | --- | --- | --- | --- | --- | --- | --- | --- | --- | --- | --- | --- |
| COCc1c(-c2ccc(NC(=O)Nc3cc(C(F)(F)F)ccc3F)c(F)c2)c2c(N)ncnn2c1CN1CCOCC1 [ACTB-1003] | 101.4 ± 0.75 | 99.02 ± 0.34 | 96.9 ± 4.4 | 98.6 ± 1.8 | 91.7 ± 2.9 | 73.4 ± 5.4 | 39.5 ± 3.3 | 0.887 ± 0.066 | 105 ± 0.92 | 104 ± 2.9 | 107 ± 3.9 | 106 ± 2.7 | 107 ± 3.3 | 98.8 ± 2 | 78.2 ± 4 | 3.14 ± 0.2 |  |  |  |  |  |  |  |  |  |  |  |  |  |  |  |  |
| c1cc(OCCN2CCCCC2)cc(-c2n[nH]c3ccc(-c4nnc[nH]4)cc23)c1 [CC-401] | 102 ± 3.9 | 102 ± 5 | 101 ± 2.8 | 99.9 ± 2.5 | 98.4 ± 4.2 | 103 ± 2.2 | 105 ± 3.4 | 52.5 ± 2.7 | 104 ± 2.5 | 104 ± 5.8 | 105 ± 2.5 | 100 ± 3.7 | 99.8 ± 2.2 | 94.5 ± 4.1 | 91 ± 2.1 | 68.2 ± 3.2 |  |  |  |  |  |  |  |  |  |  |  |  |  |  |  |  |
| Cc1cc(Nc2ncc(Cl)c(Nc3ccccc3S(=O)(=O)C(C)C)n2)c(OC(C)C)cc1C1CCNCC1 [Ceritinib] | 103 ± 1.4 | 104 ± 2.6 | 103 ± 2.6 | 97.1 ± 3.6 | 90.8 ± 8.2 | 53.9 ± 11 | 1.44 ± 0.14 | 0.279 ± 0.078 | 104 ± 3 | 105 ± 2 | 102 ± 4.2 | 99.8 ± 3.8 | 96.4 ± 2.8 | 89.1 ± 5.3 | 10.7 ± 4.1 | 0.491 ± 0.1 |  |  |  |  |  |  |  |  |  |  |  |  |  |  |  |  |
| CN[C@@H]1C[C@H]2O[C@@](C)([C@@H]1OC)n1c3ccccc3c3c4c(c5c6ccccc6n2c5c31)C(=O)N[C@H]4O [UCN-01] |  |  |  |  |  |  |  |  |  |  |  |  |  |  |  |  | 97.8 ± 4.1 | 76.3 ± 6.7 | 36.7 ± 12 | 9.05 ± 0.96 | 8.6 ± 0.48 | 7.53 ± 0.63 | 2.19 ± 0.3 | 0.853 ± 0.066 | 97.4 ± 3.3 | 89.9 ± 2 | 85.5 ± 2.9 | 85.9 ± 11 | 56.9 ± 3.2 | 34.5 ± 3.3 | 15.9 ± 0.39 | 6.69 ± 0.4 |
| CC(C)c1cc(CNc2nc(Nc3cc(C4CC4)[nH]n3)cc(N3CCN(C)CC3)n2)on1 [XL-228] | 74.7 ± 5.2 | 61.4 ± 1.7 | 54.32 ± 0.48 | 36.5 ± 1.4 | 26.8 ± 1.6 | 11 ± 0.61 | 6.45 ± 0.28 | 10.8 ± 0.58 | 103 ± 1.4 | 101 ± 2.3 | 101 ± 7.3 | 100 ± 6.3 | 115 ± 6.3 | 117 ± 3.9 | 52.2 ± 6.2 | 6.72 ± 0.86 |  |  |  |  |  |  |  |  |  |  |  |  |  |  |  |  |
| Cn1c(=O)c(F)c(Nc2ccc(I)cc2F)c2c(=O)n(C[C@@H](O)CO)cnc21 [TAK-733] |  |  |  |  |  |  |  |  |  |  |  |  |  |  |  |  | 77.8 ± 5.2 | 75.1 ± 5.4 | 73.8 ± 3.5 | 72.7 ± 4.1 | 71.6 ± 2.5 | 71.6 ± 3.9 | 70.3 ± 3.3 | 39.2 ± 3.9 | 104 ± 16 | 103 ± 7.3 | 104 ± 11 | 94.8 ± 12 | 99.5 ± 11 | 93 ± 14 | 92 ± 9.1 | 36.3 ± 9.5 |
| C[C@@H](NC(=O)c1ncnc(N)c1Cl)c1ncc(C(=O)Nc2cc(C(F)(F)F)c(Cl)cn2)s1 [MLN-2480] |  |  |  |  |  |  |  |  |  |  |  |  |  |  |  |  | 102 ± 1.9 | 102 ± 1.8 | 103 ± 1.8 | 102 ± 2.5 | 103 ± 2.3 | 100 ± 5 | 101.2 ± 0.76 | 68 ± 4.8 | 93.9 ± 2.1 | 98.5 ± 6 | 97.3 ± 2.4 | 95.8 ± 4.7 | 88.1 ± 6.3 | 77.5 ± 3.7 | 86.6 ± 9.7 | 69.5 ± 7 |
